# Experiments:
# [1] = test system: GzmB activity in 4T1 tumors; assay type: in vivo, mouse
# Procedure: Figure 5. In vivo imaging of GzmB activity in mouse tumor models. (A) Schematic illustration of the timeline of immunotherapy and real-time NIRF-imaging. (B) Measurement of tumor growth comparing immunotherapy (ICB combination)-treated vs. untreated mice. Data points are shown as mean with SD. (C) Whole animal 2D fluorescence images of immunotherapy-treated mice obtained after 2, 4, 8 and 24 h post-injection at Ex/Em: 640/680 nm. […] (D) Quantification of in vivo NIRF signals in the tumors. […] (F) Quantification of ex vivo NIRF signals in the organs (normalized to spleen). […] (G) Immunoblotting analysis of GzmB expression in tumor homogenates. Briefly, pieces of tumors were transferred to a flask containing 1 mL RIPA lysis buffer on ice and constantly grinded for 2 min. Homogenates were collected by centrifugation and 20 μg of proteins were analyzed by SDS-PAGE and immunoblotting. (H) Representative confocal microscopy images of tumor sections stained with DAPI (blue) and CD8α (green)/GzmB (yellow) antibodies and Cy5 (red) detection. (I) Fraction (%) of CD8+ cells in the tumors analyzed by flow cytometry. (J) Mean fluorescence intensity (MFI) of Cy5 signals determined by flow cytometry after dissociated tumors were treated with 10 (5 μM) for 2 h at 37 °C.
# 3-5 mice/group. For all studies, mice were monitored by daily observation and serial tumor measurements and body weights.
# Mice were treated with 20 mg/kg BEC i.v., 10 mg/kg anti-PD1 i.p., 5 mg/kg anti-CTLA4 i.p. or a combination of 10 mg/kg anti-PD-1 and 5 mg/kg anti-CTLA4. All the treatments were administered into living mice bearing 4T1 tumor every three days for three times (q3dx3). Dosing was administered at 0.01 ml/g body weight. On day 9 post-treatment, the mice were injected with 2 nmol/g GzmB qABP i.v., followed by fluorescence imaging at 2, 4, 8, and 24 h. Following the last imaging time point, mice were euthanized, and tissues were collected for ex vivo imaging.
# E. In vivo and ex vivo fluorescence imaging (FLI)
# All fluorescence imaging (FLI) were performed using Xenogen IVIS Spectrum (Revvity Health Sciences, Inc., Hopkinton, Massachusetts), which was previously owned by PerkinElmer. Prior to in vivo or ex vivo FLI, quality control of the IVIS system was performed with XFM-2X fluorescent phantom mouse (Revvity Health Sciences, Inc., Hopkinton, Massachusetts). The total radiant efficiency of AF680 phantom was 1.44 x 109 ± 5.7 x 107 at 40% threshold for the entire study.
# Both in vivo and ex vivo FLI of mice including dye phantom was performed with Ex/Em: 640/680 nm. The wavelength difference between excitation and emission was large enough to prevent signal contamination by mixing. The maximum exposure time was fixed at 120 seconds to avoid background noise. In vivo imaging used 8 binning, 2 f-stop, and 1.5 cm sample height, whereas ex vivo imaging used 8 binning, 2–4 f-stop, and 0.5 cm sample height. The quantified data are presented as radiant efficiency or normalized radiant efficiency by area. […]
# Fixed/Permeabilized […]
# cells were resuspended 100 µL 1x intracellular staining perm wash buffer and incubated with FITC-conjugated CD8 antibody (BioLegend #100706) at 0 °C for 1 h. After centrifugation, cell pellets were washed with 1x intracellular staining perm wash buffer (twice) and resuspended in the appropriate amount of cell staining buffer (BioLegend # 420201) and analyzed with flow […]
# [2] = Hydrolytic stability of qABPs in media (Cy5 fluorescence over time); assay type: physicochemical; details: cell culture media (10% FBS), 24 h incubation
# Procedure: Supplementary Figure 1. E-2B-0B-2Quenching effect and stability of qABP 10. (A) The fluorescence for each probe (10 µM) was measured at Ex/Em: 640/670 nm. (B) The stability of qABP 10 in PBS and different cell culture media (supplemented with 10% FBS) was measured by monitoring the production of Cy5 fluorescence signal over time.
# 11 CO2- In-gel fluorescence: Cy5
# Supplementary Figure 2. (A) Chemical structure of compound 11. (B) hGzmB labeling assay with 11. Recombinant human active GzmB (50 nM) was incubated with 8 or 11 (500 nM) for 1 h.
# Protein samples were analyzed by SDS-PAGE and in-gel fluorescence scanning for Cy5 signal.
# (1 picture or pasted object on this page, not shown here)
# PBS RIPA Myelocult 17 In-gel fluorescence:
# Supplementary Figure 8. Activity-based GzmA profiling. (A) Left: Dose-dependent labeling of GzmA with 16 and 17 in NK-92 cell lysates. Middle, Right: GzmA selective labeling in different cell lysates with 17 (Middle) and 16 (Right) (50 nM, 1 h, 37 °C). Briefly, cell lysates were prepared with RIPA lysis buffer, and 20 µg of proteins were incubated with 50 nM of 16 or 17 for 1 h at 37 °C and analyzed by SDS-PAGE. […]
# dependent in situ labeling of GzmA in NK-92 cells with 14-17 (2 h, 37 °C). […] After denaturing with 4X SDS-reducing buffer, 20 µg of proteins were analyzed by SDS-PAGE and in-gel fluorescence scanning for Cy5 signal. […]
structure (smiles),measurement,setting,value
"CC[C@H](C)[C@H](NC(=O)CCCCCN1/C(=C/C=C/C=C/C2=[N+](CC)c3ccc(S(=O)(=O)O)cc3C2(C)C)C(C)(C)c2cc(S(=O)(=O)O)ccc21)C(=O)N[C@@H](CCC(=O)O)C(=O)N1CCC[C@H]1C(=O)NC(CS(=O)(=O)O)P(=O)(Oc1ccc(CCNC(=O)C2CCN(S(=O)(=O)c3ccccc3-c3c4ccc(=[N+]5CCc6ccccc65)cc-4oc4cc(N5CCc6ccccc65)ccc34)CC2)cc1)c1ccccc1 (stereo partly drawn) [Compound 10, Cy5-IEPCya^PhP-QSY21]","in vivo NIRF signal at 2 h, mouse #61 (brightest)","[1]; 12.5 nmol/100 μL i.v., 2 h post-injection, ICB combination-treated mouse",7.26x10^9 p s^−1 cm^−2 sr^−1
same,time post-injection of brightest NIRF signal within tumors,"[1]; 50 nmol i.v., imaged at 2, 4, 8 and 24 h",2 h
same,"tumor-to-background ratio (TBR), ex vivo, normalized to spleen, mouse #57","[1]; 50 nmol i.v., organs harvested 24 h post-injection",15.18
same,"in vivo fluorescence signal in tumor at 2 h, mouse #57 (highest)","[1]; 50 nmol/100 μL i.v., 2 h post-injection, ICB combination-treated mouse",4.02x10^10 p s^−1 cm^−2 sr^−1
same,clearance route of excess probe,[1]; second highest signals in bladder (2 h in vivo) and kidneys (24 h ex vivo),cleared through the renal pathway
same,hydrolyzed product,[2],less than 50%
